Usually IC50 stands for the concentration needed to halve the response being measured.

The nature of the assay: Inhibitory concentration against human breast cancer cell line (HBL-100) by MTT method. Type of assay: functional, cell-based. To be noted: Cancer cell lines.

The molecule `CCCCCCCCCCCCCC[C@@H]1COC(=O)C[C@H]1O` had an IC50 of 176 nM. This counts as sub-micromolar.
